{"source": "patent US4032625A", "about": "“Bone-seeking technetium-99m complex” (priority 1975, dated 1977)", "conditions": "2 Hrs", "note": "Like-named read-outs stand apart in the source and are kept apart here.", "data": [{"compound": "[85Sr]", "note": "[^85 Sr]", "values": [{"measurement": "% Dose in Whole Organ: Blood", "setting": "0.1 mg/kg AEDP", "result": 2.48, "unit": "% Dose"}, {"measurement": "% Dose in Whole Organ: Kidneys", "setting": "0.1 mg/kg AEDP", "result": 0.324, "unit": "% Dose"}, {"measurement": "% Dose in Whole Organ: Liver", "setting": "0.1 mg/kg AEDP", "result": 0.654, "unit": "% Dose"}, {"measurement": "% Dose in Whole Organ: Marrow", "setting": "0.1 mg/kg AEDP", "result": 0.244, "unit": "% Dose"}, {"measurement": "% Dose in Whole Organ: Muscle", "setting": "0.1 mg/kg AEDP", "result": 5.15, "unit": "% Dose"}, {"measurement": "% Dose in Whole Organ: W. Femur", "setting": "0.1 mg/kg AEDP", "result": 3.27, "unit": "% Dose"}, {"measurement": "% Dose in Whole Organ: W. Tibia", "setting": "0.1 mg/kg AEDP", "result": 2.99, "unit": "% Dose"}, {"measurement": "% Dose/1% Body weight: Blood", "setting": "0.1 mg/kg AEDP", "result": 0.354, "unit": "% Dose/1% Body weight"}, {"measurement": "% Dose/1% Body weight: Bone Ave", "setting": "0.1 mg/kg AEDP", "result": 10.48, "unit": "% Dose/1% Body weight"}, {"measurement": "% Dose/1% Body weight: Femur", "setting": "0.1 mg/kg AEDP", "result": 10.97, "unit": "% Dose/1% Body weight"}, {"measurement": "% Dose/1% Body weight: Kidneys", "setting": "0.1 mg/kg AEDP", "result": 0.441, "unit": "% Dose/1% Body weight"}, {"measurement": "% Dose/1% Body weight: Liver", "setting": "0.1 mg/kg AEDP", "result": 0.182, "unit": "% Dose/1% Body weight"}, {"measurement": "% Dose/1% Body weight: Marrow", "setting": "0.1 mg/kg AEDP", "result": 0.166, "unit": "% Dose/1% Body weight"}, {"measurement": "% Dose/1% Body weight: Muscle", "setting": "0.1 mg/kg AEDP", "result": 0.136, "unit": "% Dose/1% Body weight"}, {"measurement": "% Dose/1% Body weight: Pelvis", "setting": "0.1 mg/kg AEDP", "result": 8.66, "unit": "% Dose/1% Body weight"}, {"measurement": "% Dose/1% Body weight: Spine", "setting": "0.1 mg/kg AEDP", "result": 10.56, "unit": "% Dose/1% Body weight"}, {"measurement": "% Dose/1% Body weight: Tibia", "setting": "0.1 mg/kg AEDP", "result": 11.71, "unit": "% Dose/1% Body weight"}, {"measurement": "% Dose: Urine", "setting": "0.1 mg/kg AEDP", "result": 12.1, "unit": "% Dose"}, {"measurement": "% Dose in Whole Organ: Blood", "setting": "0.1 mg/kg EHDP", "result": 3.10, "unit": "% Dose"}, {"measurement": "% Dose in Whole Organ: Kidneys", "setting": "0.1 mg/kg EHDP", "result": 0.30, "unit": "% Dose"}, {"measurement": "% Dose in Whole Organ: Liver", "setting": "0.1 mg/kg EHDP", "result": 0.64, "unit": "% Dose"}, {"measurement": "% Dose in Whole Organ: Marrow", "setting": "0.1 mg/kg EHDP", "result": 0.43, "unit": "% Dose"}, {"measurement": "% Dose in Whole Organ: One Femur", "setting": "0.1 mg/kg EHDP", "result": 3.42, "unit": "% Dose"}, {"measurement": "% Dose/1%-body weight: Blood", "setting": "0.1 mg/kg EHDP", "result": 0.443, "unit": "% Dose/1%-body weight"}, {"measurement": "% Dose/1%-body weight: Femur", "setting": "0.1 mg/kg EHDP", "result": 10.9, "unit": "% Dose/1%-body weight"}, {"measurement": "% Dose/1%-body weight: Kidney", "setting": "0.1 mg/kg EHDP", "result": 0.513, "unit": "% Dose/1%-body weight"}, {"measurement": "% Dose/1%-body weight: Liver", "setting": "0.1 mg/kg EHDP", "result": 0.230, "unit": "% Dose/1%-body weight"}, {"measurement": "% Dose/1%-body weight: Marrow", "setting": "0.1 mg/kg EHDP", "result": 0.195, "unit": "% Dose/1%-body weight"}, {"measurement": "% Dose: Urine", "setting": "0.1 mg/kg EHDP", "result": 11.31, "unit": "% Dose"}, {"measurement": "% Dose in Whole Organ: Blood", "setting": "0.1 mg/kg MDP", "result": 3.95, "unit": "% Dose"}, {"measurement": "% Dose in Whole Organ: Kidneys", "setting": "0.1 mg/kg MDP", "result": 0.66, "unit": "% Dose"}, {"measurement": "% Dose in Whole Organ: Liver", "setting": "0.1 mg/kg MDP", "result": 1.05, "unit": "% Dose"}, {"measurement": "% Dose in Whole Organ: Marrow", "setting": "0.1 mg/kg MDP", "result": 0.57, "unit": "% Dose"}, {"measurement": "% Dose in Whole Organ: Muscle", "setting": "0.1 mg/kg MDP", "result": 9.32, "unit": "% Dose"}, {"measurement": "% Dose in Whole Organ: One Femur", "setting": "0.1 mg/kg MDP", "result": 2.80, "unit": "% Dose"}, {"measurement": "% Dose/1% Body weight: Blood", "setting": "0.1 mg/kg MDP", "result": 0.56, "unit": "% Dose/1% body weight"}, {"measurement": "% Dose/1% Body weight: Femur", "setting": "0.1 mg/kg MDP", "result": 10.0, "unit": "% Dose/1% body weight"}, {"measurement": "% Dose/1% Body weight: Kidneys", "setting": "0.1 mg/kg MDP", "result": 1.00, "unit": "% Dose/1% body weight"}, {"measurement": "% Dose/1% Body weight: Liver", "setting": "0.1 mg/kg MDP", "result": 0.30, "unit": "% Dose/1% body weight"}, {"measurement": "% Dose/1% Body weight: Marrow", "setting": "0.1 mg/kg MDP", "result": 0.26, "unit": "% Dose/1% body weight"}, {"measurement": "% Dose/1% Body weight: Muscle", "setting": "0.1 mg/kg MDP", "result": 0.22, "unit": "% Dose/1% body weight"}, {"measurement": "% Dose/1% Body weight: Pelvis", "setting": "0.1 mg/kg MDP", "result": 12.2, "unit": "% Dose/1% body weight"}, {"measurement": "% Dose/1% Body weight: Spine", "setting": "0.1 mg/kg MDP", "result": 8.45, "unit": "% Dose/1% body weight"}, {"measurement": "% Dose/1% Body weight: Tibia", "setting": "0.1 mg/kg MDP", "result": 6.05, "unit": "% Dose/1% body weight"}, {"measurement": "% Dose/1% body weight: Ave Bone", "setting": "0.1 mg/kg MDP", "result": 9.17, "unit": "% Dose/1% body weight"}, {"measurement": "% Dose: Urine", "setting": "0.1 mg/kg MDP", "result": 15.4, "unit": "% Dose"}, {"measurement": "% Dose in Whole Organ: Blood", "setting": "0.5 mg/kg AEDP", "result": 4.36, "unit": "% Dose"}, {"measurement": "% Dose in Whole Organ: Kidneys", "setting": "0.5 mg/kg AEDP", "result": 0.384, "unit": "% Dose"}, {"measurement": "% Dose in Whole Organ: Liver", "setting": "0.5 mg/kg AEDP", "result": 0.720, "unit": "% Dose"}, {"measurement": "% Dose in Whole Organ: Marrow", "setting": "0.5 mg/kg AEDP", "result": 0.456, "unit": "% Dose"}, {"measurement": "% Dose in Whole Organ: Muscle", "setting": "0.5 mg/kg AEDP", "result": 6.51, "unit": "% Dose"}, {"measurement": "% Dose in Whole Organ: W. Femur", "setting": "0.5 mg/kg AEDP", "result": 2.75, "unit": "% Dose"}, {"measurement": "% Dose in Whole Organ: W. Tibia", "setting": "0.5 mg/kg AEDP", "result": 2.42, "unit": "% Dose"}, {"measurement": "% Dose/1% Body weight: Blood", "setting": "0.5 mg/kg AEDP", "result": 0.624, "unit": "% Dose/1% Body weight"}, {"measurement": "% Dose/1% Body weight: Bone Ave", "setting": "0.5 mg/kg AEDP", "result": 10.78, "unit": "% Dose/1% Body weight"}, {"measurement": "% Dose/1% Body weight: Femur", "setting": "0.5 mg/kg AEDP", "result": 10.43, "unit": "% Dose/1% Body weight"}, {"measurement": "% Dose/1% Body weight: Kidneys", "setting": "0.5 mg/kg AEDP", "result": 0.924, "unit": "% Dose/1% Body weight"}, {"measurement": "% Dose/1% Body weight: Liver", "setting": "0.5 mg/kg AEDP", "result": 0.270, "unit": "% Dose/1% Body weight"}, {"measurement": "% Dose/1% Body weight: Marrow", "setting": "0.5 mg/kg AEDP", "result": 0.207, "unit": "% Dose/1% Body weight"}, {"measurement": "% Dose/1% Body weight: Muscle", "setting": "0.5 mg/kg AEDP", "result": 0.151, "unit": "% Dose/1% Body weight"}, {"measurement": "% Dose/1% Body weight: Pelvis", "setting": "0.5 mg/kg AEDP", "result": 11.42, "unit": "% Dose/1% Body weight"}, {"measurement": "% Dose/1% Body weight: Spine", "setting": "0.5 mg/kg AEDP", "result": 9.87, "unit": "% Dose/1% Body weight"}, {"measurement": "% Dose/1% Body weight: Tibia", "setting": "0.5 mg/kg AEDP", "result": 11.37, "unit": "% Dose/1% Body weight"}, {"measurement": "% Dose: Urine", "setting": "0.5 mg/kg AEDP", "result": 10.47, "unit": "% Dose"}, {"measurement": "% Dose in Whole Organ: Blood", "setting": "0.5 mg/kg EHDP", "result": 4.43, "unit": "% Dose"}, {"measurement": "% Dose in Whole Organ: Kidneys", "setting": "0.5 mg/kg EHDP", "result": 0.48, "unit": "% Dose"}, {"measurement": "% Dose in Whole Organ: Liver", "setting": "0.5 mg/kg EHDP", "result": 0.76, "unit": "% Dose"}, {"measurement": "% Dose in Whole Organ: Marrow", "setting": "0.5 mg/kg EHDP", "result": 0.34, "unit": "% Dose"}, {"measurement": "% Dose in Whole Organ: One Femur", "setting": "0.5 mg/kg EHDP", "result": 2.48, "unit": "% Dose"}, {"measurement": "% Dose/1%-body weight: Blood", "setting": "0.5 mg/kg EHDP", "result": 0.633, "unit": "% Dose/1%-body weight"}, {"measurement": "% Dose/1%-body weight: Femur", "setting": "0.5 mg/kg EHDP", "result": 9.213, "unit": "% Dose/1%-body weight"}, {"measurement": "% Dose/1%-body weight: Kidney", "setting": "0.5 mg/kg EHDP", "result": 0.972, "unit": "% Dose/1%-body weight"}, {"measurement": "% Dose/1%-body weight: Liver", "setting": "0.5 mg/kg EHDP", "result": 0.244, "unit": "% Dose/1%-body weight"}, {"measurement": "% Dose/1%-body weight: Marrow", "setting": "0.5 mg/kg EHDP", "result": 0.152, "unit": "% Dose/1%-body weight"}, {"measurement": "% Dose: Urine", "setting": "0.5 mg/kg EHDP", "result": 19.67, "unit": "% Dose"}, {"measurement": "% Dose in Whole Organ: Blood", "setting": "0.5 mg/kg MDP", "result": 3.11, "unit": "% Dose"}, {"measurement": "% Dose in Whole Organ: Kidneys", "setting": "0.5 mg/kg MDP", "result": 0.45, "unit": "% Dose"}, {"measurement": "% Dose in Whole Organ: Liver", "setting": "0.5 mg/kg MDP", "result": 0.69, "unit": "% Dose"}, {"measurement": "% Dose in Whole Organ: Marrow", "setting": "0.5 mg/kg MDP", "result": 0.67, "unit": "% Dose"}, {"measurement": "% Dose in Whole Organ: Muscle", "setting": "0.5 mg/kg MDP", "result": 5.65, "unit": "% Dose"}, {"measurement": "% Dose in Whole Organ: One Femur", "setting": "0.5 mg/kg MDP", "result": 2.96, "unit": "% Dose"}, {"measurement": "% Dose/1% Body weight: Blood", "setting": "0.5 mg/kg MDP", "result": 0.45, "unit": "% Dose/1% body weight"}, {"measurement": "% Dose/1% Body weight: Femur", "setting": "0.5 mg/kg MDP", "result": 11.32, "unit": "% Dose/1% body weight"}, {"measurement": "% Dose/1% Body weight: Kidneys", "setting": "0.5 mg/kg MDP", "result": 0.69, "unit": "% Dose/1% body weight"}, {"measurement": "% Dose/1% Body weight: Liver", "setting": "0.5 mg/kg MDP", "result": 0.23, "unit": "% Dose/1% body weight"}, {"measurement": "% Dose/1% Body weight: Marrow", "setting": "0.5 mg/kg MDP", "result": 0.30, "unit": "% Dose/1% body weight"}, {"measurement": "% Dose/1% Body weight: Muscle", "setting": "0.5 mg/kg MDP", "result": 0.13, "unit": "% Dose/1% body weight"}, {"measurement": "% Dose/1% Body weight: Pelvis", "setting": "0.5 mg/kg MDP", "result": 8.68, "unit": "% Dose/1% body weight"}, {"measurement": "% Dose/1% Body weight: Spine", "setting": "0.5 mg/kg MDP", "result": 8.92, "unit": "% Dose/1% body weight"}, {"measurement": "% Dose/1% Body weight: Tibia", "setting": "0.5 mg/kg MDP", "result": 6.16, "unit": "% Dose/1% body weight"}, {"measurement": "% Dose/1% body weight: Ave Bone", "setting": "0.5 mg/kg MDP", "result": 8.77, "unit": "% Dose/1% body weight"}, {"measurement": "% Dose: Urine", "setting": "0.5 mg/kg MDP", "result": 15.16, "unit": "% Dose"}]}]}
